Measurements taken from patent US20130209366A1, “Glutathione-Lanthionine Compounds and Methods Related Thereto” (OKLAHOMA MEDICAL RESEARCH FOUNDATION, priority 2010, published 2013).
Marks after values point to notes of the source that are not given here.

Experiments:
SOD1G93A mutant mice = assay: Onset of paralysis and survival in SOD1G93A mouse model of familial ALS; format: in vivo; settings: for age at death (d) mean / onset of paralysis (d) mean: 5 days/week from 90d
Procedure: Additional studies to explore effects of LKE in vivo, as a pharmacological candidate were conducted in a murine model for the motoneuron disease amyotrophic lateral sclerosis (ALS). In a first effort to assess LKE effects against a model of spontaneous neurodegeneration, SOD1G93A mutant mice modeling familial ALS [27-28] were treated with intraperitoneal (i.p.) injections of 100 mg/kg/d LKE in saline vehicle, from 90d throughout the remaining mouse lifespan. LKE is relevant to test in this mouse because the SOD1G93A mouse experiences robust neuroinflammation concomitant with TNFα-driven microglial activation, oxidative stress, and significant progressive distal axonopathy, all of which might be expected to be mitigated by LKE based on the ester's observed effects in cell culture. Mouse motor function was assessed as previously described using a standard rotarod test, at sequential 10d intervals (FIG. 6). Specific groups of mice were treated with LKE in saline or saline vehicle only. […] Overall survival was increased by LKE based on logrank analysis (Table I).
(§1) Mice were injected with synthetic gLan in saline at 50-200 mg/kg/d, five days per week (Monday-Friday) beginning at 90d of age. Mice were assessed at baseline and every 10d for motor functional ability using the rotarod task as described previously.
Motor function dropped off rapidly amongst all groups at ages >110 d (FIG. 8). As in the case of LKE treatment, chronic intraperitoneal gLan at 100-200 mg/kg/dose tended to increase the age at which onset-of-paralysis was observed (based on a leg-clinch test) and the mean age of death of the SOD1G93A mice (Table II). When motor performance curves were interpolated to estimate the age at which mice lost an average 50% of baseline motor function, the 100 mg/kg/dose gLan treatment group reached this clinical endpoint approximately 18d later than the vehicle-treated group (FIG. 8).

SOD1G93A mice = assay: Rotarod motor function in SOD1G93A mice; format: in vivo, mouse
Procedure: FIG. 8. […] Mice were treated with daily intraperitoneal injections of gLan, at the indicated dose, 5 days/week beginning at 90 d, and motor performance was evaluated by rotarod task as described in the examples.
Additional studies to explore effects of LKE in vivo, as a pharmacological candidate were conducted in a murine model for the motoneuron disease amyotrophic lateral sclerosis (ALS). In a first effort to assess LKE effects against a model of spontaneous neurodegeneration, SOD1G93A mutant mice modeling familial ALS [27-28] were treated with intraperitoneal (i.p.) injections of 100 mg/kg/d LKE in saline vehicle, from 90d throughout the remaining mouse lifespan. LKE is relevant to test in this mouse because the SOD1G93A mouse experiences robust neuroinflammation concomitant with TNFα-driven microglial activation, oxidative stress, and significant progressive distal axonopathy, all of which might be expected to be mitigated by LKE based on the ester's observed effects in cell culture. Mouse motor function was assessed as previously described using a standard rotarod test, at sequential 10d intervals (FIG. 6). Specific groups of mice were treated with LKE in saline or saline vehicle only.
as §1

[1] = tested on: primary dissociated chick dorsal root ganglia (DRG) cultures; assay: Neurite length in primary dissociated chick dorsal root ganglia cultures; format: cell-based; settings: 100 μM, treated at 2-3 DIV, 24 h
Procedure: FIG. 5. LK-5-ethyl ester (LKE) promotes neurite extension in primary, dissociated chick dorsal root ganglia cell cultures. Neurons were treated with LKE or saline vehicle for 24 h from DIV2-3 and quantitatively assessed for neurite morphometry as described in the text.
Cell culture studies were performed to assess LKE effects on neuritigenesis in primary dissociated chick dorsal root ganglia (DRG) cultures prepared essentially as described by Margiotta and Howard. Cultures were treated with LKE at 2-3 days in vitro (DIV), and neuron morphometry was quantified from bright field micrographs by a blinded observer using Metamorph® software (Molecular Devices, Sunnyvale Calif. USA).

NSC-34 cells = settings: cited from earlier work
[2] = tested on: NSC-34 motor neuron-like cells; settings: NSC-34 cells; cited from earlier work
[3] = tested on: TNFα or LPS-treated microglia and macrophages; settings: cited from earlier work
HT-4 neurons = settings: cited from earlier work
syntaptosomal membranes = settings: cited from earlier work
[4] = 100 mg/kg/d i.p. in saline from 90d, N = 15

## NC(CSC[C@H](NC(=O)CC[C@H](N)C(=O)O)C(=O)NCC(=O)O)C(=O)O (some centres unmarked) [gLan, γGlu-Cys(S-Ala)-Gly]
SOD1G93A mutant mice; gLan 50 mg/kg daily i.p.
  age at death (d) mean: 126.7 days
  onset of paralysis (d) mean: 111.6 days
SOD1G93A mutant mice; gLan 100 mg/kg daily i.p.
  age at death (d) mean: 138.3 days
  onset of paralysis (d) mean: 123.8 days
SOD1G93A mutant mice; gLan 200 mg/kg daily i.p.
  age at death (d) mean: 133.1 days
  onset of paralysis (d) mean: 116.7 days
SOD1G93A mice; 100 mg/kg/dose, interpolated from motor performance curves
  delay versus vehicle of the age at which mice lost an average 50% of baseline motor function: approximately 18 d
SOD1G93A mice; 50-200 mg/kg/d, up to 110d or 120d, 100 mg/kg optimum, p<0.01 repeated measures ANOVA
  motor function (rotarod): dose-dependently improved
SOD1G93A mice; 100-200 mg/kg/d
  average rotarod performance at 100d and 110d versus 90d baseline: improved above the 90d baseline value
SOD1G93A mice; 100-200 mg/kg/d, ages <120d
  motor function relative to saline treated control animals: twice

## CCOC(=O)C1CSCC(C(=O)O)=N1 (centres unmarked) [LKE, LK-5-ethyl ester]
[1]
  mean neurite length of dissociated DRG neurons: significantly increased
SOD1G93A mutant mice; 100 mg/kg/d i.p. from 90d, logrank analysis
  overall survival: increased
SOD1G93A mutant mice; [4]
  maximum age at death: 152 days
  median age at death (d): 139† d
  minimum age at death: 124 days
SOD1G93A mutant mice; 100 mg/kg/d i.p. in saline from 90d, mean ± SEM, N = 15
  age of frank paralysis: 121.6 ± 2.5 days
NSC-34 cells
  growth factor-stimulated outgrowth of neurites: promoted
SOD1G93A mice; 100 mg/kg/d i.p. from 90d, rotarod and leg-splay test
  progression of clinical motoneuron disease: significantly slowed
[2]
  protection from toxicity of hydrogen peroxide (H2O2): protected
  protection from toxicity of microglia-conditioned medium: protected
[3]
  nitric oxide synthesis: suppressed
HT-4 neurons
  protection against toxicity of high-dose glutamate: protected

## O=C(O)C1CSCC(C(=O)O)N1 (centres unmarked) [reduced LK, thiomorpholine dicarboxylic acid]
Syntaptosomal membranes
  displacement of [35S]LK: could not displace

## O=C(O)C1=NC(C(=O)O)CSC1 (centres unmarked) [LK, 2H-1,4-thiazine-5,6-dihydro-3,5-dicarboxylic acid]
Syntaptosomal membranes; saturable, reversible with cold LK, read-out: Kd of [35S]LK binding to synaptosomal membranes
  Kd: 58 nM
[3]
  nitric oxide synthesis: suppressed
HT-4 neurons
  protection against toxicity of high-dose glutamate: protected
